Laboratory results published in patent US20250268884A1, “Deuterated Domperidone for Treating Gastroparesis” (CinDome Pharma, Inc., priority 2022, published 2025).

Test system: adults with idiopathic or diabetic gastroparesis
Assay: ANMS GCSI-DD total and subscale scores, protocol-specified scoring method, Phase 2a
Format: in vivo, human
Set-up: key to ANMS GCSI-DD total score, Day 14/EOT, mean / ANMS GCSI-DD nausea/vomiting subscale score, Day 14/EOT, mean / ANMS GCSI-DD postprandial fullness/early satiety subscale score, Day 14/EOT, mean / ANMS GCSI-DD bloating subscale score, Day 14/EOT, mean: symptoms rated 0 (none) to 4 (very severe)
Description: Subjects were Evaluated as Follows: • Days −28 to −11: Screening procedures were performed. The ANMS GCSI-DD questionnaire was completed daily for at least 14 days prior to randomization (Day 1); • Days −10 to −3: The ANMS GCSI-DD questionnaire was completed daily. A GEBT was performed on a single day within this window, with breath samples obtained twice prior to consumption of a standardized, carbon-13 (^13C)-enriched meal and then at 45, 90, 120, 150, 180, and 240 minutes after meal consumption after an 8-hour fast. […] On Day 14 (±2 days), the PAGI-SYM and Clinical Grading Assessment questionnaires were completed prior to the final dose of study drug. • A GEBT was administered 30 minutes after study drug administration on Day 14 (±2 days). Breath samples were obtained twice prior to ^13C-enriched meal consumption and then at 45, 90, 120, 150, 180, and 240 minutes after meal consumption after an 8-hour fast. If a subject withdrew from the study prior to the Day 14 (±2 days) GEBT, attempts should have been made to perform a GEBT on the last day of study drug administration. Clinical Grading Assessment Scales were also performed.
The ANMS GCSI-DD covers 5 core relevant symptoms of gastroparesis: nausea, early satiety, postprandial fullness, upper abdominal pain, and vomiting. Bloating is included as an exploratory symptom. Symptoms are rated on a severity numeric response scale from 0 (none) to 4 (very severe). Vomiting is captured on a frequency response scale and scored as follows: 0 for no episodes, 1 for 1 episode, 2 for 2 episodes, 3 for 3 episodes, and 4 for 4 or more episodes. Subjects were asked to recall symptoms over the previous 24 hours and complete the ANMS GCSI-DD patient-reported symptom questionnaire for at least 14 days prior to randomization, on the day of randomization, and daily from Days 1 to 14 (±2 days).

## [2H]c1c([2H])c([2H])c2c([nH]c(=O)n2CCCN2CCC(n3c(=O)[nH]c4cc(Cl)ccc43)CC2)c1[2H] [Deudomperidone, 1-{3-[4-(5-chloro-2-oxo-2,3-dihydro-1H-1,3-benzodiazol-1-yl)piperidin-1yl]propyl}-2,3-dihydro(4,5,6,7-D4)-1H-1,3-benzodiazol-2-one]
5 mg BID, Cohort 3, ITT
  ANMS GCSI-DD bloating subscale score, Day 14/EOT, mean: 2.33
  ANMS GCSI-DD bloating subscale score, change from baseline to Day 14/EOT: −0.37
  ANMS GCSI-DD bloating subscale score, percent change from baseline to Day 14/EOT: −16.16%
  ANMS GCSI-DD nausea/vomiting subscale score, Day 14/EOT, mean: 1.00
  ANMS GCSI-DD nausea/vomiting subscale score, change from baseline to Day 14/EOT: −0.52
  ANMS GCSI-DD nausea/vomiting subscale score, percent change from baseline to Day 14/EOT: −41.08%
  ANMS GCSI-DD postprandial fullness/early satiety subscale score, Day 14/EOT, mean: 2.00
  ANMS GCSI-DD postprandial fullness/early satiety subscale score, change from baseline to Day 14/EOT: −0.78
  ANMS GCSI-DD postprandial fullness/early satiety subscale score, percent change from baseline to Day 14/EOT: −29.47%
  ANMS GCSI-DD total score, Day 14/EOT, mean: 1.78
  ANMS GCSI-DD total score, change from baseline to Day 14/EOT: −0.56
  ANMS GCSI-DD total score, percent change from baseline to Day 14/EOT: −26.84%
10 mg BID, Cohort 1, ITT
  ANMS GCSI-DD bloating subscale score, Day 14/EOT, mean: 1.76
  ANMS GCSI-DD bloating subscale score, change from baseline to Day 14/EOT: −1.08
  ANMS GCSI-DD bloating subscale score, percent change from baseline to Day 14/EOT: −41.78%
  ANMS GCSI-DD nausea/vomiting subscale score, Day 14/EOT, mean: 0.74
  ANMS GCSI-DD nausea/vomiting subscale score, change from baseline to Day 14/EOT: −0.89
  ANMS GCSI-DD nausea/vomiting subscale score, percent change from baseline to Day 14/EOT: −52.41%
  ANMS GCSI-DD postprandial fullness/early satiety subscale score, Day 14/EOT, mean: 1.71
  ANMS GCSI-DD postprandial fullness/early satiety subscale score, change from baseline to Day 14/EOT: −1.16
  ANMS GCSI-DD postprandial fullness/early satiety subscale score, percent change from baseline to Day 14/EOT: −41.38%
  ANMS GCSI-DD total score, Day 14/EOT, mean: 1.40
  ANMS GCSI-DD total score, change from baseline to Day 14/EOT: −1.04
  ANMS GCSI-DD total score, percent change from baseline to Day 14/EOT: −43.64%
20 mg QD, Cohort 2, ITT
  ANMS GCSI-DD bloating subscale score, Day 14/EOT, mean: 1.47
  ANMS GCSI-DD bloating subscale score, change from baseline to Day 14/EOT: −1.40
  ANMS GCSI-DD bloating subscale score, percent change from baseline to Day 14/EOT: −51.82%
  ANMS GCSI-DD nausea/vomiting subscale score, Day 14/EOT, mean: 0.40
  ANMS GCSI-DD nausea/vomiting subscale score, change from baseline to Day 14/EOT: −1.20
  ANMS GCSI-DD nausea/vomiting subscale score, percent change from baseline to Day 14/EOT: −67.94%
  ANMS GCSI-DD postprandial fullness/early satiety subscale score, Day 14/EOT, mean: 1.37
  ANMS GCSI-DD postprandial fullness/early satiety subscale score, change from baseline to Day 14/EOT: −1.38
  ANMS GCSI-DD postprandial fullness/early satiety subscale score, percent change from baseline to Day 14/EOT: −50.14%
  ANMS GCSI-DD total score, Day 14/EOT, mean: 1.08
  ANMS GCSI-DD total score, change from baseline to Day 14/EOT: −1.33
  ANMS GCSI-DD total score, percent change from baseline to Day 14/EOT: −55.24%
All deudomperidone treatment groups, placebo also decreased
  ANMS GCSI-DD total score and all subscale scores at Day 14/End of Treatment: decreased from baseline
